Source: patent US20230146870A1, “METHOD TO QUANTIFY AFFINITY AND SELECTIVITY OF SMALL MOLECULES FOR PROTEINS IN LIVING CELLS” (Ohio State Innovation Foundation, priority 2021, published 2023)
Where “and” joins values, the source holds several entries; their conditions need not be identical. Equal values may be shown once. Entries after “also recorded” stand apart in the source; their conditions may differ. Read-outs that look alike come from different tables or passages of the source.

Columns and labels:
[1] = cited from earlier work
[2] = system: Taxol binding site in living cells; details: previously reported; read-out: Ki by confocal microscopy; cited from earlier work
[3] = system: microtubules (taxane binding site) in living HeLa cells; assay: Competition binding assay with PB-GABA-Taxol in living HeLa cells (cellular Ki); details: for Ki: read-out: cellular Ki, PB-GABA-Taxol 1.5 μM, verapamil 100 μM, 37° C., 4% FBS, 3 h
Experimental: In this assay the cellular Kd was measured by varying the concentration of the fluorescent probe added to cells at equilibrium as established by kinetic assays of probe uptake. Total binding of this probe to specific and non-specific sites in cells in the presence of the efflux inhibitor verapamil was determined by flow cytometry. Non-specific binding was quantified separately by addition of excess paclitaxel with the probe under the same conditions. Subtraction of the linear non-specific binding contribution from the total binding curve was used analyze specific binding of the probe to tubulin of microtubules. Measurement of this cellular dissociation constant under equilibrium conditions further allowed conversion of the half-maximal inhibitory concentration (IC50) of unlabeled compounds into cellular inhibitory constants using an adaptation of the Cheng-Prusoff equation^44 for competitive modulators (Ki) or the allosteric equation^45 for non-competitive modulators (Kb and the cooperativity factor α) as implemented by GraphPad Prism.

[4] = target: albumin (Homo sapiens, UniProt P02768); details: cited from earlier work
[5] = target: crosslinked / purified microtubules; details: previously reported; read-out: biochemical Ki for microtubules; cited from earlier work
[6] = system: microtubule network of HeLa cells (mScarlet-α-Tubulin); assay: Confocal microscopy of HeLa cells transfected with mScarlet-α-Tubulin; assay type: cell-based; details: 1 h at 37° C.
Experimental: (FIG. 28C) Characterization of fluorescent microtubule phenotypes in HeLa cells transiently transfected with mScarlet-a-Tubulin and treated with the microtubule modulators (1 h at 37° C.). […] Scale bars=10 μm.
Cells were washed with PBS before treatment with PB-GABA-Taxol (100 nM) and (±)-verapamil hydrochloride (100 μM), with or without paclitaxel (10 μM) as a competitor, in phenol red-free DMEM supplemented with 10% FBS. Cells were incubated at 37° C. for 3 h prior to imaging by confocal microscopy. For experiments using HeLa cells transfected with mScarlet-α-tubulin, transient transfection was performed using a Invitrogen Lipofectamine 3000 Transfection kit (Thermo, L3000-075). Transfection used a 1× dose of lipid in OptiMEM (4% FBS) for 18 hours before washing of cells with PBS and treatment with the microtubule modulator for 1 h at 37° C.

[7] = target: T1, C1A-C1A-EYFP (PKCγ) (UniProt P63319); assay: Cellular binding by flow cytometry, HEK293 cells expressing C1A-C1A-EYFP (PKCγ); details: verapamil 100 μM
T1 construct: apparent Kd; other: verapamil 100 μM, 90 min, 37° C., DMEM high glucose, 4% FBS; half time (t1/2) of cellular fluorescence; other: 33 at 5 μM, verapamil 100 μM, room temperature; fused on or other part: EYFP at the C-terminus; the C1A module is present twice in one chain
Text: The dissociation constant can be defined as the ratio of koff divided by kon. This value is also the concentration where the ligand occupies 50% of the receptor.^94 Kd is only meaningful when equilibrium is reached, where the ligand-receptor complex is formed at the same rate as it dissociates into free ligand and receptor (FIG. 15). This binding equilibrium is established when essentially no further change in the amount of bound complex is observed over time. To evaluate the time needed for equilibration, we treated HEK293 cells that overexpress C1A-C1A-EYFP (PKCγ) with 33 (0 and 5 μM) in the presence or absence of verapamil (100 μM) and cellular fluorescence was measured by flow cytometry as a function of time (FIG. 18A). […] This optimization was used to establish a 90 min equilibration period for further assay optimization.
The presence of fetal bovine serum (FBS) in the culture media also influenced the binding by sequestering the free ligand. The assay conditions were finalized using HEK293 cells incubated with the probe in the presence of verapamil for 90 min at 37° C. in DMEM media (high glucose, 4% FBS).

[8] = target: T2, mouse PKCβI-mVenus (Mus musculus, UniProt P68404); assay: Apparent cellular Kd by flow cytometry, HEK293 cells overexpressing PKCβI-mVenus (Example 2); assay type: binding
T2 construct: eight plasmids encoding full length mouse PKC isozymes fused to; expressed in transfected cells; host or cells: HEK293
Experimental: The apparent Kd values of these fluorescent probes were measured using different PKC isozymes (e.g., PKCβI, FIGS. 20A-20D). HEK293 cells were transfected to overexpress PKCβ-mVenus and treated with probes in the presence of verapamil (100 μM) as an inhibitor of efflux.

[9] = system: HEK293 cells; assay: Viability of HEK293 cells during probe treatment by flow cytometry; assay type: cell-based; details: 33 at 1 μM, verapamil 0, 25 or 100 μM, 1 h
Experimental: FIGS. 14A and 14B show quantification of fluorescence (FIG. 14A) and viability (FIG. 14B) upon treatment of HEK293 cells with compound 33 (1 μM) and verapamil (0, 25 or 100 μM) for 1 h. Total [DMSO]=0.2%. Error bars represent SD (N=3). Statistical significance analyzed by one-way ANOVA (GraphPad Prism 9). **, P<0.01; ****, P<0.0001. Samples were analyzed with a Beckman Coulter Cytoflex flow cytometer. (Ex. 405 nm/Em. […]). […] Compound 33 is non-toxic under these conditions.
FIGS. 16A-16D show quantification of non-specific binding and cell viability after treatment for 1 h at 37° C. with compound 33 (2-fold serial dilution from 5 μM) and verapamil (75 μM) in the presence of different competitors (PMA or non-fluorescent PB-carbamate 8, at 0, 5 and 10 μM). Total [DMSO]=0.3%. (FIG. 16A) Parental HEK293 cells analyzed after treatment with 33 in the presence or absence of PMA or compound 8. […] Samples were analyzed with a Beckman Coulter Cytoflex flow cytometer and gated to analyze living cells (Ex. 405 nm; Em. 450/45 nm).
The efflux of this fluorescent probe was next studied by flow cytometry. […] The blue fluorescent signal (405 nm laser) of HEK293 cells overexpressing green fluorescent full-length PKCγ-EGFP was elucidated (the median protein concentration was determined to be ˜5.0 μM as measured by flow cytometry by comparison with Spherotech rainbow bead standards as described herein). […]

[10] = target: C1 domain of human PKD (purified C1AB domain) (Homo sapiens, UniProt Q15139); assay: [3H]PDBu competition assay with purified C1AB domain of PKD; assay type: binding
Experimental: Affinities were measured with a radioactive […]
The results of the biochemical binding assays with cellular binding assays were used to quantitatively investigate differences between conventional biochemical measurements of Ki values with this novel method for determination of Ki values in cellule.

[11] = system: Jurkat cells; assay: Cellular viability assay, Jurkat lymphocytes, 48 h, flow cytometry (Example 2); assay type: cell-based; details: Homo sapiens, Jurkat, read-out: toxicity towards Jurkat cells, IC50
Experimental: The impact of membrane transporters on the toxicity profile of 49 was also studied.
Jurkat lymphocytes were seeded into a 96-well plate in fresh complete medium at 2.5×10^5 cells/mL and 200 μL per well. All compounds were serial diluted in DMSO and added to complete media to achieve a 1:1000 dilution factor (0.10% DMSO in each well). […] The total cell-count for each well was determined by flow cytometry and staining with propidium iodide was used to identify populations of live cells (only dead cells are stained by PI). Counts of viable cells for each treatment, determined in triplicate, were used to generate dose-response curves. These curves were fitted with non-linear regression using an inhibitor vs. response variable slope […] model (GraphPad Prism 9) to determine IC50 values.

[12] = target: T3, rat EGFP-N2-PKCγ (Rattus norvegicus, UniProt P63319); assay: Confocal video microscopy of PKCγ trafficking in HEK293 cells; assay type: cell-based; details: 33 at 1 μM, after 10 min
T3 construct: transiently transfected with DNA encoding the full-length rat PKCγ-EGFP; host or cells: HEK293
Text: Blue fluorescence of 33 is shown in the right panels (Ex. 405 nm, Em. 410-495 nm, Gain 50), green fluorescence of transiently transfected EGFP-N2-PKCγ protein is shown in the middle panels (Ex. 488 nm, Em. 500-650 nm, Gain 700), and DIC images are shown in the left panels. Trafficking of PKCγ-mEGFP protein to membranes induced by 33 can be observed Images were acquired with a Leica SP8 microscope (63× objective). Scale bar=25 μm.
It appears that this is due to efflux of this compound from cells mediated by efflux transporters such as Pgp. To explore this idea, two-color confocal video microscopy was used. Briefly, HEK293 cells were transiently transfected with commercially available plasmid DNA encoding rat PKCγ fused to GFP (EGFP-N2-PKCγ, Addgene Plasmid #21204).^84 The HEK293 cell line is known to expresses multiple efflux transporters including Pgp (MDR1/ABCB1).^85 The fluorescence of GFP was monitored by excitation with a 488 nm laser and emission collected between 500-650 nm. […] In addition, the cell morphology was recorded using differential interference contrast microscopy (DIC). The localization of the fluorescent probe and the GFP fusion protein was recorded using video confocal microscopy immediately after treatment of transfected cells with 33. […]

Chain of C1 domain of human PKD (purified C1AB domain) (Q15139 whole entry, the tested form may be a part): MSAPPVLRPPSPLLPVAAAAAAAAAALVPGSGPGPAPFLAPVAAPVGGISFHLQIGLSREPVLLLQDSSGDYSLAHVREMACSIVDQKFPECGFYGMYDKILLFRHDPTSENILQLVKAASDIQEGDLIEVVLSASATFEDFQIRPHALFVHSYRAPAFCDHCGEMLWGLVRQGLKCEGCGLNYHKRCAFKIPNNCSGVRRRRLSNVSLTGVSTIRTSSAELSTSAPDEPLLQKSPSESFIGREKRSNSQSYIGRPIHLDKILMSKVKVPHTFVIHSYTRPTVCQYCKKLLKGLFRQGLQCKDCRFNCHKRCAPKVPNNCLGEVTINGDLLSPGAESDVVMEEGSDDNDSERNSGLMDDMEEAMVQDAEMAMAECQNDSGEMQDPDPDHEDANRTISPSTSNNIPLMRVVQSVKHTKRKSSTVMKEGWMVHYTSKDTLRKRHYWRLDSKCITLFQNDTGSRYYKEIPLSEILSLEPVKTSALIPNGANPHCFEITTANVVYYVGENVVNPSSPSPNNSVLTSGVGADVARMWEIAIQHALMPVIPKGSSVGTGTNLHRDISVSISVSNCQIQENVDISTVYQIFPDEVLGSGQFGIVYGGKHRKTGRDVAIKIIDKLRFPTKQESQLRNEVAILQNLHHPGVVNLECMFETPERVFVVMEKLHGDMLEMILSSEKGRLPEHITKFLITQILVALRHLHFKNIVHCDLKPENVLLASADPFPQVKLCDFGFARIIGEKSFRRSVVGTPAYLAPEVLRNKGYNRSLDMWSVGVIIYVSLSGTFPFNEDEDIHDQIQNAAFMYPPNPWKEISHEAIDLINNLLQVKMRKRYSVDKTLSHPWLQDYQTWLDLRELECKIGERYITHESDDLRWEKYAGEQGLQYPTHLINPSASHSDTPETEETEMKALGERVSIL
Chain of albumin (P02768 25-609, species assumed): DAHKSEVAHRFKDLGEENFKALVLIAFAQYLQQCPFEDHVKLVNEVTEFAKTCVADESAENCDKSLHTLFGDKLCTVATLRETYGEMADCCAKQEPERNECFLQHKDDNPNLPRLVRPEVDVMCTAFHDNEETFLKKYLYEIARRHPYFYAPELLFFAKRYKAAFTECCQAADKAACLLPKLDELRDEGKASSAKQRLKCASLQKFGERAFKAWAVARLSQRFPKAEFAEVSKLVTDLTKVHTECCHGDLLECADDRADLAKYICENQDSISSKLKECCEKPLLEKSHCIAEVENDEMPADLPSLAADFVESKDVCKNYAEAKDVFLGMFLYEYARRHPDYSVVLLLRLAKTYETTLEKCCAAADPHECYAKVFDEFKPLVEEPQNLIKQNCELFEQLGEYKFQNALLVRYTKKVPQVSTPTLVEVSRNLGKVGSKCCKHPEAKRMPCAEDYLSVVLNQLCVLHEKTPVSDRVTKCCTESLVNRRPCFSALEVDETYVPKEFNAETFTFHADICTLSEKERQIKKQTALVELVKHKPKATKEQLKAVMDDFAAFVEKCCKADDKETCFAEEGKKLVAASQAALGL
T2 sequence (P68404 whole entry, the tested form may be a part): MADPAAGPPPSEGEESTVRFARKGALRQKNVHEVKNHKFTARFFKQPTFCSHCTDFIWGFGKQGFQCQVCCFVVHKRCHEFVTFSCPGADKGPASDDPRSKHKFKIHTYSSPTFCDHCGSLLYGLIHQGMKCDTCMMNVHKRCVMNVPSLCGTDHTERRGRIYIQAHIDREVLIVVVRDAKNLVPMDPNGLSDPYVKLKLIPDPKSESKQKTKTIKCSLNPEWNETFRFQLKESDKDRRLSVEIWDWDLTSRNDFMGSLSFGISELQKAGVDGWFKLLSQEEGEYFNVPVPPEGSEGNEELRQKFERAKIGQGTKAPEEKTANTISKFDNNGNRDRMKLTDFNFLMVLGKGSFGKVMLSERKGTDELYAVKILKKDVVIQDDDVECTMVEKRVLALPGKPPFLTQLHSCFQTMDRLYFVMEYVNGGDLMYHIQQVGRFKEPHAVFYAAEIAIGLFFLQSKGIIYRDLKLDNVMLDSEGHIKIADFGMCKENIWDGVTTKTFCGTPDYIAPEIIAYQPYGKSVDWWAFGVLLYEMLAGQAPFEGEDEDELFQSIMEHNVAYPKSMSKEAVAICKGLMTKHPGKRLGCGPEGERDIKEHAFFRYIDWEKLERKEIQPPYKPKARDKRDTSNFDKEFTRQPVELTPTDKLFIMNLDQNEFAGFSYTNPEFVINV

O=C(O)c1cc2cc(F)c(O)c(F)c2oc1=O [Pacific Blue™]
phenol pKa [1]: 3.7

C/C(=C\c1csc(C)n1)[C@@H]1C[C@@H]2O[C@]2(C)CCC[C@H](C)[C@H](O)[C@@H](C)C(=O)C(C)(C)[C@@H](O)CC(=O)N1 [ixabepilone]
Ki [2]: 7.6 ± 1.6 nM
Ki [3]: 10 nM

CC(=O)O[C@H]1C(=O)[C@@]2(C)[C@H]([C@H](OC(=O)c3ccccc3)[C@]3(O)C[C@H](OC(=O)[C@H](O)[C@@H](NC(=O)c4ccccc4)c4ccccc4)C(C)=C1C3(C)C)[C@]1(OC(C)=O)CO[C@@H]1C[C@@H]2O [paclitaxel]
Kd [4]: 120 nM
Ki [5]: 19 nM and 27 nM and 31 nM
fluorescent microtubule phenotype [6]: increased numbers of microtubule fibers
decrease of apparent affinity vs incubation for 3 h or 4 h ([3]; incubation 1 h): 3 fold
decrease of apparent affinity vs incubation for 3 h or 4 h ([3]; incubation 2 h): 2 fold
underestimation of cellular Ki ([3]; probe concentration 3 μM): 12 fold
Ki [3]: 22 nM
decrease of apparent affinity (cellular Ki) by ligand depletion ([3]; σ=15% (150 nM β-tubulin/well)): 2.3 fold
decrease of apparent affinity (cellular Ki) by ligand depletion ([3]; σ=30% (300 nM β-tubulin/well)): 4.7 fold

CC1=C[C@H]2[C@@]3(O)[C@H](C)[C@@H](O)[C@]4(OC(=O)N(C)CCCCCCCCCCCCN(C)C(=O)c5cc6cc(F)c(O)c(F)c6oc5=O)[C@H]([C@@H]3C=C(CO)C[C@]2(O)C1=O)C4(C)C [probe 33, (1aR,1bS,4aR,7aS,7bS,8R,9R,9aS)-4a,7b,9-trihydroxy-3-(hydroxymethyl)-1,1,6,8-tetramethyl-5-oxo-1,1a,1b,4,4a,5,7a,7b,8,9-decahydro-9aH-cyclopropa[3,4]benzo[1,2-e]azulen-9a-yl (12-(6,8-difluoro-7-hydroxy-N-methyl-2-oxo-2H-chromene-3-carboxamido)dodecyl)(methyl)carbamate]
half time (t1/2) of cellular fluorescence ([7]; 33 at 5 μM, room temperature): about 32 min
Kd ([7]; 90 min, 37° C., DMEM high glucose, 4% FBS, read-out: apparent Kd): 6400 nM
Kd [8]: 2700 nM
toxicity to HEK293 cells [9]: non-toxic; also recorded: no toxicity
Ki ([10]; Ki for purified C1AB domain of PKD): 30 nM
Ki ([10]; read-out: Ki for purified C1AB domain of PKD): ~30 nM
IC50 [11]: ~12000 nM
trafficking of PKCγ [12]: translocation of PKCγ to the plasma membrane
